Activity calls are given as the source filed them. The calls are words filed in the database; no cut-off is given here.
Assays:
[1] = Antiproliferative activity against human MINO cells by MTT assay; assay type: functional, cell-based
OCI-Ly7 = assay: Antiproliferative activity against human OCILY7 cells by MTT assay; assay type: functional, cell-based
MINO [2] = assay: Downregulation of EZH2 protein expression in human MINO cells at 5 uM incubated for 24 hrs by Western blotting assay; assay type: functional, cell-based
MINO [3] = assay: Downregulation of SUZ12 protein expression in human MINO cells at 5 uM incubated for 24 hrs by Western blotting assay; assay type: functional, cell-based
MINO [4] = assay: Downregulation of EED protein expression in human MINO cells at 5 uM incubated for 24 hrs by Western blotting assay; assay type: functional, cell-based
MINO [5] = assay: Downregulation of RbAp48 protein expression in human MINO cells at 5 uM incubated for 24 hrs by Western blotting assay; assay type: functional, cell-based
MINO [6] = assay: Downregulation of H3k27me3 protein expression in human MINO cells at 5 uM incubated for 24 hrs by Western blotting assay; assay type: functional, cell-based
[7] = Induction of cell cycle arrest in human MINO cells assessed as G0/G1 phase cells at 5 uM incubated for 24 hrs by propidium iodide staining based flow cytometry assay (reference value: 67.56%); assay type: functional
[8] = Induction of cell cycle arrest in human MINO cells assessed as G2/M phase cells at 5 uM incubated for 24 hrs by propidium iodide staining based flow cytometry assay (reference value: 7.26%); assay type: functional
[9] = Induction of cell cycle arrest in human MINO cells assessed as S phase cells at 5 uM incubated for 24 hrs by propidium iodide staining based flow cytometry assay (reference value: 25.19%); assay type: functional
[10] = Induction of apoptosis in human MINO cells assessed as viable cells at 5 uM incubated for 24 hrs by Annexin V-FITC/PI staining based flow cytometry assay (reference value: 89.93%); assay type: functional; conditions: read-out: Activity
[11] = Induction of apoptosis in human MINO cells assessed as early apoptotic cells at 5 uM incubated for 24 hrs by Annexin V-FITC/PI staining based flow cytometry assay (reference value: 1.04%); assay type: functional
[12] = Induction of apoptosis in human MINO cells assessed as late apoptotic cells at 5 uM incubated for 24 hrs by Annexin V-FITC/PI staining based flow cytometry assay (reference value: 8.29%); assay type: functional
[13] = Induction of apoptosis in human MINO cells assessed as necrotic cells at 5 uM incubated for 24 hrs by Annexin V-FITC/PI staining based flow cytometry assay (reference value: 0.74%); assay type: functional
MINO [14] = assay: Induction of mitochondrial apoptosis pathway in human MINO cells assessed as upregulation of cytochrome C expression at 5 uM incubated for 24 hrs by Western blotting assay; assay type: functional, cell-based
MINO [15] = assay: Induction of mitochondrial apoptosis pathway in human MINO cells assessed as upregulation of bax protein expression at 5 uM incubated for 24 hrs by Western blotting assay; assay type: functional, cell-based
MINO [16] = assay: Induction of mitochondrial apoptosis pathway in human MINO cells assessed as upregulation of cleaved PARP expression at 5 uM incubated for 24 hrs by Western blotting assay; assay type: functional, cell-based
MINO [17] = assay: Induction of mitochondrial apoptosis pathway in human MINO cells assessed as downregulation of bcl-2 expression at 5 uM incubated for 24 hrs by Western blotting assay; assay type: functional, cell-based
MINO [18] = assay: Induction of mitochondrial apoptosis pathway in human MINO cells assessed as downregulation of procaspase-3 expression at 5 uM incubated for 24 hrs by Western blotting assay; assay type: functional, cell-based
MINO [19] = assay: Induction of mitochondrial apoptosis pathway in human MINO cells assessed as downregulation of procaspase-9 expression at 5 uM incubated for 24 hrs by Western blotting assay; assay type: functional, cell-based

With `CCN(c1cc(-c2ccc(CN3CCN(CCCN4CC(CNc5cccc6c5C(=O)N(C5CCC(=O)NC5=O)C6=O)C4)CC3)cc2)cc(C(=O)NCc2c(C)cc(C)[nH]c2=O)c1C)C1CCOCC1` (configuration not stated) the IC50 [1] was 69 nM and the IC50 (OCI-Ly7) was 22 nM.
For `CCN(c1cc(-c2ccc(CN3CCN(C(=O)C4CCN(C5CN(c6cccc7c6C(=O)N(C6CCC(=O)NC6=O)C7=O)C5)CC4)CC3)cc2)cc(C(=O)NCc2c(C)cc(C)[nH]c2=O)c1C)C1CCOCC1` (configuration not stated), the IC50 [1] was 2470 nM and the IC50 (OCI-Ly7) was 10400 nM.
`CCN(c1cc(-c2ccc(CN3CCN(CC=C4CCC(CNc5cccc6c5C(=O)N(C5CCC(=O)NC5=O)C6=O)CC4)CC3)cc2)cc(C(=O)NCc2c(C)cc(C)[nH]c2=O)c1C)C1CCOCC1` (configuration not stated) gave an IC50 [1] of 250 nM and an IC50 (OCI-Ly7) of 4 nM.
Work on `CCN(c1cc(-c2ccc(CN3CCN(C(=O)C4CCC(CNc5cccc6c5C(=O)N(C5CCC(=O)NC5=O)C6=O)CC4)CC3)cc2)cc(C(=O)NCc2c(C)cc(C)[nH]c2=O)c1C)C1CCOCC1` (configuration not stated) yielded an IC50 [1] of 34 nM and an IC50 (OCI-Ly7) of 18 nM.
Work on `CCN(c1cc(-c2ccc(CN3CCN(C(=O)CN4CCC(CNc5cccc6c5C(=O)N(C5CCC(=O)NC5=O)C6=O)C4)CC3)cc2)cc(C(=O)NCc2c(C)cc(C)[nH]c2=O)c1C)C1CCOCC1` (configuration not stated) yielded an IC50 [1] of 3210 nM and an IC50 (OCI-Ly7) of 2130 nM.
With `CCN(c1cc(-c2ccc(CN3CCN(C(=O)CN4CCC(Nc5cccc6c5C(=O)N(C5CCC(=O)NC5=O)C6=O)C4)CC3)cc2)cc(C(=O)NCc2c(C)cc(C)[nH]c2=O)c1C)C1CCOCC1` (configuration not stated) the IC50 [1] was 660 nM and the IC50 (OCI-Ly7) was 150 nM.
Work on `CCN(c1cc(-c2ccc(CN3CCN(C(=O)CN4CC(CNc5cccc6c5C(=O)N(C5CCC(=O)NC5=O)C6=O)C4)CC3)cc2)cc(C(=O)NCc2c(C)cc(C)[nH]c2=O)c1C)C1CCOCC1` (configuration not stated) yielded an IC50 [1] of 950 nM and an IC50 (OCI-Ly7) of 1970 nM.
For `CCN(c1cc(-c2ccc(CN3CCN(C(=O)C4CCN(C5CCN(c6cccc7c6C(=O)N(C6CCC(=O)NC6=O)C7=O)CC5)CC4)CC3)cc2)cc(C(=O)NCc2c(C)cc(C)[nH]c2=O)c1C)C1CCOCC1` (configuration not stated), the IC50 [1] was 980 nM and the IC50 (OCI-Ly7) was 4050 nM.
In the case of `CCN(c1cc(-c2ccc(CN3CCN(CCC4CCC(CNc5cccc6c5C(=O)N(C5CCC(=O)NC5=O)C6=O)CC4)CC3)cc2)cc(C(=O)NCc2c(C)cc(C)[nH]c2=O)c1C)C1CCOCC1` (configuration not stated), the IC50 [1] is reported as 40 nM and the IC50 (OCI-Ly7) is reported as 13 nM.
`CCN(c1cc(-c2ccc(CN3CCN(C(=O)C=C4CCC(CNc5cccc6c5C(=O)N(C5CCC(=O)NC5=O)C6=O)CC4)CC3)cc2)cc(C(=O)NCc2c(C)cc(C)[nH]c2=O)c1C)C1CCOCC1` (configuration not stated) gave an IC50 [1] of 690 nM and an IC50 (OCI-Ly7) of 190 nM.
`CCN(c1cc(-c2ccc(CN3CCN(C(=O)/C=C/C4CCC(CNc5cccc6c5C(=O)N(C5CCC(=O)NC5=O)C6=O)CC4)CC3)cc2)cc(C(=O)NCc2c(C)cc(C)[nH]c2=O)c1C)C1CCOCC1` (configuration not stated) showed an IC50 [1] of 24 nM and an IC50 (OCI-Ly7) of 40 nM.
With `CCN(c1cc(-c2ccc(CN3CCN(C(=O)CCN4CC(CNc5cccc6c5C(=O)N(C5CCC(=O)NC5=O)C6=O)C4)CC3)cc2)cc(C(=O)NCc2c(C)cc(C)[nH]c2=O)c1C)C1CCOCC1` (configuration not stated) the IC50 [1] was 510 nM and the IC50 (OCI-Ly7) was 170 nM.
Work on `CCN(c1cc(-c2ccc(CN3CCN(C(=O)CN4CCN(c5cccc6c5C(=O)N(C5CCC(=O)NC5=O)C6=O)CC4)CC3)cc2)cc(C(=O)NCc2c(C)cc(C)[nH]c2=O)c1C)C1CCOCC1` (configuration not stated) yielded an IC50 [1] of 110 nM and an IC50 (OCI-Ly7) of 2350 nM.
Work on `CCN(c1cc(-c2ccc(CN3CCN(C(=O)Cc4ccc(CNc5cccc6c5C(=O)N(C5CCC(=O)NC5=O)C6=O)cc4)CC3)cc2)cc(C(=O)NCc2c(C)cc(C)[nH]c2=O)c1C)C1CCOCC1` (configuration not stated) yielded an IC50 [1] of 1030 nM and an IC50 (OCI-Ly7) of 870 nM.
With `CCN(c1cc(-c2ccc(CN3CCN(C(=O)CCC4CC(CNc5cccc6c5C(=O)N(C5CCC(=O)NC5=O)C6=O)C4)CC3)cc2)cc(C(=O)NCc2c(C)cc(C)[nH]c2=O)c1C)C1CCOCC1` (configuration not stated) the IC50 [1] was 48 nM and the IC50 (OCI-Ly7) was 10 nM.
In the case of `CCN(c1cc(-c2ccc(CN3CCN(C(=O)CN4CCCC(CNc5cccc6c5C(=O)N(C5CCC(=O)NC5=O)C6=O)C4)CC3)cc2)cc(C(=O)NCc2c(C)cc(C)[nH]c2=O)c1C)C1CCOCC1` (configuration not stated), the IC50 [1] is reported as 450 nM and the IC50 (OCI-Ly7) is reported as 220 nM.
In the case of `CCN(c1cc(-c2ccc(CN3CCN(C(=O)CN4CCC(Nc5cccc6c5C(=O)N(C5CCC(=O)NC5=O)C6=O)CC4)CC3)cc2)cc(C(=O)NCc2c(C)cc(C)[nH]c2=O)c1C)C1CCOCC1` (configuration not stated), the IC50 [1] is reported as 530 nM and the IC50 (OCI-Ly7) is reported as 22 nM.
Work on `CCN(c1cc(-c2ccc(CN3CCN(C(=O)CCC4CCC(CNc5cccc6c5C(=O)N(C5CCC(=O)NC5=O)C6=O)CC4)CC3)cc2)cc(C(=O)NCc2c(C)cc(C)[nH]c2=O)c1C)C1CCOCC1` (configuration not stated) yielded an IC50 [1] of 39 nM and an IC50 (OCI-Ly7) of 37 nM.
`CCN(c1cc(-c2ccc(CN3CCN(C(=O)/C=C/C4CC(CNc5cccc6c5C(=O)N(C5CCC(=O)NC5=O)C6=O)C4)CC3)cc2)cc(C(=O)NCc2c(C)cc(C)[nH]c2=O)c1C)C1CCOCC1` (configuration not stated) gave an IC50 [1] of 190 nM and an IC50 (OCI-Ly7) of 6 nM.
`CCN(c1cc(-c2ccc(CN3CCN(C(=O)/C=C/C4CCC(CNc5cccc6c5C(=O)N(C5CCC(=O)NC5=O)C6=O)C4)CC3)cc2)cc(C(=O)NCc2c(C)cc(C)[nH]c2=O)c1C)C1CCOCC1` (configuration not stated) showed an IC50 [1] of 57 nM and an IC50 (OCI-Ly7) of 7 nM.
`CCN(c1cc(-c2ccc(CN3CCN(C(=O)CCC4CCC(CNc5cccc6c5C(=O)N(C5CCC(=O)NC5=O)C6=O)C4)CC3)cc2)cc(C(=O)NCc2c(C)cc(C)[nH]c2=O)c1C)C1CCOCC1` (configuration not stated) gave an IC50 [1] of 30 nM and an IC50 (OCI-Ly7) of 20 nM.
With `CCN(c1cc(-c2ccc(CN3CCOCC3)cc2)cc(C(=O)NCc2c(C)cc(C)[nH]c2=O)c1C)C1CCOCC1` [TAZEMETOSTAT] the IC50 [1] was 1070 nM, the IC50 (OCI-Ly7) was 1190 nM and the Activity (MINO [2]) was “inactive”. The Activity (MINO [3]) was “inactive”, the Activity (MINO [4]) was “inactive” and the Activity (MINO [5]) was “inactive”. The Activity (MINO [6]) was “Active; Limited Inhibition Observed”, the Activity [7] was 73.92% and the Activity [8] was 7.74%. The Activity [9] was 18.34%, the viability at 5 µM [10] was 57.2% and the Activity [11] was 0.38%. For the same compound, the Activity [12] was 32.16%, the Activity [13] was 10.27% and the Activity (MINO [14]) was “Active; Activity Weaker Than Zj-20”. The Activity (MINO [15]) was “Active; Activity Weaker Than Zj-20”, the Activity (MINO [16]) was “Active; Activity Weaker Than Zj-20” and the Activity (MINO [17]) was “Active; Activity Weaker Than Zj-20”. The Activity (MINO [18]) was “Active; Activity Weaker Than Zj-20” and the Activity (MINO [19]) was “Active; Activity Weaker Than Zj-20”.
